{"source": "patent US20240033283A1", "about": "“FUNCTIONALIZED AND CROSSLINKED POLYMERS” (PMIDG, LLC, priority 2020, published 2024)", "test": "Lidocaine release from gels (dialysis tubing)", "type": "physicochemical", "conditions": "PBS, 37° C.", "experimental": "HA and HA-DVS-MBA (83.3% substitution) gels were prepared in a similar manner as described in Example 18 using 0.75% BDDE and a pH of 13.1. About 2 g of each gel were added to a vial and 105 uL of a 6% (w/w) lidocaine HCl in PBS solution was added to each sample. After mixing, the samples were autoclaved for 5 minutes at 121° C. Approx. 1.5 g of each gel was transferred to dialysis tubing (Aldon Corporation, IS13027, 6.4 mm×10 mm, cut-off: 12-14 kDa). […] The loaded dialysis tubing was placed in separate 45 ml PBS solutions and incubated at 37° C. under oscillating conditions. […] The lidocaine content was measured using HPLC. The percent release was determined by released amount divided by the initial amount added. The release of the lidocaine from the HA and HA-MBA gels was similar.", "note": "Counter-ions that a name gives are not always drawn."}
{"compound": "CCN(CC)CC(=O)Nc1c(C)cccc1C", "note": "[Lidocaine only, lidocaine HCl]", "values": [{"measurement": "Cumulative Release (%)", "setting": "Time 0.5 hr", "result": 82, "unit": "%"}, {"measurement": "Cumulative Release (%)", "setting": "Time 1 hr", "result": 87, "unit": "%"}, {"measurement": "Cumulative Release (%)", "setting": "Time 1.5 hr", "result": 86, "unit": "%"}, {"measurement": "Cumulative Release (%)", "setting": "Time 2 hr", "result": 84, "unit": "%"}, {"measurement": "Cumulative Release (%)", "setting": "Time 3.5 hr", "result": 82, "unit": "%"}]}
